Assays:
Settings in all cases: incubation time: 72 h
Hs578T [1] = assay: drug sensitivity score (DSS), CellTox Green (DSS (AUC-based score)); higher = stronger drug effect (viability inhibition or cytotoxicity); extreme values may be limits of the assay
Procedure, shortened: (§1)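 Normalisation on every plate relied on 0.1 % DMSO and a positive kill control. The plates, 384-well format, held compound at 5 concentrations 10-fold apart across a compound-specific 10,000-fold range, and breast cancer cell lines in 20 µl suspension were incubated on them for 72 h before CellTox Green and then CellTiter-Glo readings. The drug sensitivity score derives from the area under the fitted dose-response curve.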

MDA-MB-436 [2] = assay: as above
Procedure, shortened: as §1

HDQ-P1 [3] = assay: as above
Procedure, shortened: as §1

DU-4475 [4] = assay: as above
Procedure, shortened: as §1

CAL-51 [5] = assay: as above
Procedure, shortened: as §1

MDA-MB-468 [6] = assay: as above
Procedure, shortened: as §1

BT-549 [7] = assay: as above
Procedure, shortened: as §1

HCC1599 [8] = assay: as above
Procedure, shortened: as §1

CAL-148 = assay: drug sensitivity score (DSS), CellTiter-Glo (DSS (AUC-based score)); higher = stronger drug effect (viability inhibition or cytotoxicity); extreme values may be limits of the assay
Procedure, shortened: as §1

HCC1143 = assay: as above
Procedure, shortened: as §1

Hs578T [9] = assay: as above
Procedure, shortened: as §1

MDA-MB-436 [10] = assay: as above
Procedure, shortened: as §1

HDQ-P1 [11] = assay: as above
Procedure, shortened: as §1

CAL-120 = assay: as above
Procedure, shortened: as §1

DU-4475 [12] = assay: as above
Procedure, shortened: as §1

BT-474 = assay: as above
Procedure, shortened: as §1

CAL-51 [13] = assay: as above
Procedure, shortened: as §1

MDA-MB-231 = assay: as above
Procedure, shortened: as §1

MCF-10A = assay: as above
Procedure, shortened: as §1

MDA-MB-468 [14] = assay: as above
Procedure, shortened: as §1

MDA-MB-453 = assay: as above
Procedure, shortened: as §1

MFM-223 = assay: as above
Procedure, shortened: as §1

BT-549 [15] = assay: as above
Procedure, shortened: as §1

HCC1599 [16] = assay: as above
Procedure, shortened: as §1

CAL-85-1 = assay: as above
Procedure, shortened: as §1

HCC1937 = assay: as above
Procedure, shortened: as §1

SK-BR-3 = assay: as above
Procedure, shortened: as §1

Row | SMILES | drug sensitivity score (Hs578T [1]) | drug sensitivity score (MDA-MB-436 [2]) | drug sensitivity score (HDQ-P1 [3]) | drug sensitivity score (DU-4475 [4]) | drug sensitivity score (CAL-51 [5]) | drug sensitivity score (MDA-MB-468 [6]) | drug sensitivity score (BT-549 [7]) | drug sensitivity score (HCC1599 [8]) | drug sensitivity score (CAL-148) | drug sensitivity score (HCC1143) | drug sensitivity score (Hs578T [9]) | drug sensitivity score (MDA-MB-436 [10]) | drug sensitivity score (HDQ-P1 [11]) | drug sensitivity score (CAL-120) | drug sensitivity score (DU-4475 [12]) | drug sensitivity score (BT-474) | drug sensitivity score (CAL-51 [13]) | drug sensitivity score (MDA-MB-231) | drug sensitivity score (MCF-10A) | drug sensitivity score (MDA-MB-468 [14]) | drug sensitivity score (MDA-MB-453) | drug sensitivity score (MFM-223) | drug sensitivity score (BT-549 [15]) | drug sensitivity score (HCC1599 [16]) | drug sensitivity score (CAL-85-1) | drug sensitivity score (HCC1937) | drug sensitivity score (SK-BR-3)
1 | CNC(=O)c1ccc(N2C(=S)N(c3ccc(C#N)c(C(F)(F)F)c3)C(=O)C2(C)C)cc1F [Enzalutamide] | 0 | 0 | 0 | 0 | 0 | 0 | 0 | 0 | 0 | 0 | 0 | 0 | 0 | 0 | 0 | 0 | 6.69 | 0 | 0 | 0 | 0.159 | 0 | 0 | 0 | 0 | 0 | 0
2 | C=C1C[C@@H]2[C@H](CC[C@]3(C)C(=O)CC[C@@H]23)[C@@]2(C)C=CC(=O)C=C12 [Exemestane] | 0 | 0 | 3.28 | 0 | 0 | 0 | 0 | 0 | 0 | 0 | 0 | 0 | 0 | 0 | 0 | 0 | 0 | 0 | 0 | 0 | 0 | 0 | 0 | 0 | 0 | 0 | 0
3 | CCOC(=O)CCNc1cc(N2CCc3ccccc3CC2)nc(-c2ccccn2)n1 [GSK-J4] | 20.6 | 7.09 | 11.6 | 2.65 | 11.4 | 12.3 | 7.69 | 2.51 | 17.3 | 12.5 | 10.4 | 15.7 | 10.5 | 10.7 | 13.5 | 12.1 | 21.5 | 14 | 12.1 | 19.9 | 17 | 12.5 | 22.2 | 12.1 | 15.1 | 12 | 10.7
4 | Cc1cc(Nc2cc(CN3CCOCC3)c3nc(C)c(Cc4ccc(Cl)cc4F)n3n2)n[nH]1 [Gandotinib] | 7.9 | 0.139 | 0 | 0 | 7.6 | 3.86 | 0 | 0 | 0 | 2.62 | 6.39 | 4.83 | 5.01 | 3.77 | 0.384 | 6.22 | 9.68 | 7.43 | 3.4 | 9.64 | 0 | 5.57 | 6.71 | 0 | 4.82 | 1.28 | 3.64
5 | COc1cc2ncnc(Nc3ccc(F)c(Cl)c3)c2cc1OCCCN1CCOCC1 [Gefitinib] | 0 | 0 | 0 | 0 | 0 | 0 | 0 | 0 | 2.08 | 0 | 0 | 0 | 7.21 | 0 | 0 | 0 | 0 | 0 | 17.7 | 5.4 | 0 | 0 | 0 | 0 | 9.09 | 2.45 | 10.1
6 | O=C(Nc1ccncc1)C(=O)c1cn(Cc2ccc(Cl)cc2)c2ccccc12 [Indibulin] | 1.65 | 0 | 0 | 0 | 12.5 | 3.09 | 0 | 0 | 0 | 5.89 | 7.7 | 11.9 | 3.33 | 6.2 | 1.15 | 4.97 | 19.4 | 3.55 | 0 | 12.2 | 6.57 | 7.28 | 12.6 | 7.03 | 13 | 3.81 | 12.8
7 | CCc1c2c(nc3ccc(OC(=O)N4CCC(N5CCCCC5)CC4)cc13)-c1cc3c(c(=O)n1C2)COC(=O)[C@]3(O)CC [Irinotecan] | 1.06 | 0 | 0 | 0 | 10.7 | 0 | 0 | 0 | 7.67 | 0 | 0 | 7.54 | 0 | 2.72 | 4.98 | 1.83 | 3.68 | 0 | 1.93 | 7.12 | 0 | 0 | 4 | 1.9 | 0 | 0 | 4.28
8 | Oc1ccc2c(c1)CC[C@H](c1ccccc1)[C@@H]2c1ccc(OCCN2CCCC2)cc1 [Lasofoxifene] | 3.26 | 0 | 0 | 0 | 0 | 0 | 0 | 0 | 0 | 0 | 0 | 0 | 0 | 0 | 0 | 0 | 0 | 0 | 0 | 0 | 0 | 0 | 0 | 0 | 0 | 0 | 0
9 | COC(=O)c1ccc2c(c1)NC(=O)/C2=C(\Nc1ccc(N(C)C(=O)CN2CCN(C)CC2)cc1)c1ccccc1 [Nintedanib] | 0 | 1.22 | 0 | 0 | 6.03 | 2.7 | 2.06 | 0 | 0 | 2.02 | 1.11 | 3.08 | 6.77 | 3.62 | 0 | 5.02 | 8.21 | 6.66 | 8.49 | 5.28 | 1.67 | 7.98 | 8.24 | 0 | 0 | 3.95 | 0
10 | Cc1[nH]c2ccccc2c1CCNCc1ccc(/C=C/C(=O)NO)cc1 [Panobinostat] | 18.5 | 0 | 3.86 | 6.99 | 18.2 | 10 | 0 | 4.47 | 20 | 15.1 | 15.1 | 10.2 | 8.41 | 12.9 | 19.2 | 16.6 | 17.2 | 18.2 | 11.1 | 15.2 | 23.5 | 13.2 | 11.1 | 14.7 | 16.5 | 9.22 | 22.3
11 | CNC(=O)c1ccc(N2C(=S)N(c3ccc(C#N)c(C(F)(F)F)c3)C(=O)C23CCC3)cc1F [RD162] | 0 | 0 | 0 | 0 | 0 | 0 | 0 | 0 | 0 | 0 | 0 | 0 | 0 | 0 | 0 | 3.77e-05 | 0 | 0 | 0 | 0 | 0 | 0 | 0 | 0 | 0 | 0 | 0
12 | CNC(=O)c1cc(Oc2ccc(NC(=O)Nc3ccc(Cl)c(C(F)(F)F)c3)c(F)c2)ccn1 [Regorafenib] | 0 | 0 | 0 | 0 | 0 | 0 | 0 | 0 | 0.856 | 0 | 3.86 | 1.08 | 2.22 | 1.79 | 1.79 | 2.89 | 5.7 | 0.969 | 4.48 | 1.92 | 2.37 | 6.42 | 1.23 | 1.51 | 0 | 1.28 | 1.17
